Experimental data: patent publication US12371454B2, “Cyclic peptide compound having Kras inhibitory action” (priority 2019, dated 2025)
Starred links: 1 amine or outer side, 2 acyl side, 3 side chain; linkers in the order of their positions; H or OH if unused. Positions of bridges follow the written chain, without caps; N, C: chain ends. Non-standard residues stand in square brackets, D forms with d. Residues, ends and D or L forms follow the SMILES beside them. *: point of attachment. hPhe(3-Cl-4-CF3) = N[C@@H](CCc1ccc(C(F)(F)F)c(Cl)c1)C(=O)O; NMeAbu(4,4,4-F3) = CN[C@@H](CC(F)(F)F)C(=O)O; NMePhe(4-Me) = CN[C@@H](Cc1ccc(C)cc1)C(=O)O; NMeNle(6-CHF2) = CN[C@@H](CCCCC(F)F)C(=O)O; NMedβ3hAla = C[C@H](CC(=O)[*:2])N(C)[*:1]; NMePhe(2-F) = CN[C@@H](Cc1ccccc1F)C(=O)O; hPhe(4-F) = N[C@@H](CCc1ccc(F)cc1)C(=O)O; NMeGly(cPent) = CN[C@H](C(=O)O)C1CCCC1; Phe(3-I) = N[C@@H](Cc1cccc(I)c1)C(=O)O; NMeAla(cPr) = CN[C@@H](CC1CC1)C(=O)O; Phe(2-Me) = Cc1ccccc1C[C@H](N)C(=O)O; NMeGly(cBu) = CN[C@H](C(=O)O)C1CCC1; NMeCha = CN[C@@H](CC1CCCCC1)C(=O)O; X2 = C=CC[C@](C)(N[*:1])C(=O)[*:2]; NMeChg = CN[C@H](C(=O)O)C1CCCCC1; NMeI = CC[C@H](C)[C@H](NC)C(=O)O; NMeD = CN[C@@H](CC(=O)O)C(=O)O; NMeL = CN[C@@H](CC(C)C)C(=O)O; NMehSer = CN[C@@H](CCO)C(=O)O; Chg = N[C@H](C(=O)O)C1CCCCC1; NMePra = C#CC[C@H](NC)C(=O)O; NMeNva = CCC[C@H](NC)C(=O)O; NMeV = CN[C@H](C(=O)O)C(C)C; Ac6c = NC1(C(=O)O)CCCCC1; Iva = CC[C@](C)(N)C(=O)O; NMeA = CN[C@@H](C)C(=O)O; NMeAib = CNC(C)(C)C(=O)O; Piperidide = C1CCN(*)CC1; Pyrrolidide = C1CCN(*)C1; Ac5c = NC1(C(=O)O)CCCC1; Aze = O=C(O)[C@@H]1CCN1; Sar = CNCC(=O)O

Tests used:
[1] = target: T1, Kras and SOS1 (biotin-tagged human Kras loaded with GDP, His-tagged human SOS1) (Homo sapiens, UniProt P01116, G12D); experiment: Protein-protein interaction inhibition between Kras and SOS1 (KrasGl2D-SOS PPI) using AlphaScreen; assay type: binding; details: AlphaScreen; biotin-tagged human Kras loaded with GDP, His-tagged human SOS1; read-out: KRAS G12D-SOS PPI IC50
T1 construct: made in house; host or cells: E. coli (stated for Kras only)
Procedure, shortened: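 Donor beads (nickel) hold His-SOS1; acceptor beads (streptavidin) hold biotin-Kras bound to GDP. Signal measured at 520-620 nm following 680 nm excitation.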

[2] = test system: Human pancreatic cancer cell line AsPC-1; experiment: Measurement of AsPC-1 cell growth inhibition (AsPC-1 CGI); assay type: cell-based; details: 96 h
Procedure, shortened: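 AsPC-1 cells in 15% FBS RPMI-1640 were exposed to test compound for 96 hours at 37° C, with CellTiter-Glo as endpoint.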

T1 sequence (P01116 1-188 isoform P01116-2 G12D): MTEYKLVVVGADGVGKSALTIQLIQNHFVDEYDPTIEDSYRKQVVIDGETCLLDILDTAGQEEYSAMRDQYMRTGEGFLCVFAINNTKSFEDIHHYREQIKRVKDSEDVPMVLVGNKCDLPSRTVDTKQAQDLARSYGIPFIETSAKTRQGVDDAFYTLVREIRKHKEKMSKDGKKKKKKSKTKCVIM

Structure (SMILES) | IC50 [1] [nM] | IC50 [2] [nM]
CCC[C@H]1C(=O)N(C)[C@H](C(=O)N2CCCCC2)CC(=O)N(C)[C@@H](CC(C)C)C(=O)N[C@@H]([C@@H](C)CC)C(=O)N(C)CC(=O)N(C)CC(=O)N(C)[C@@H](CC2CCCCC2)C(=O)N(C)CC(=O)N[C@@H](CCc2ccc(C(F)(F)F)c(Cl)c2)C(=O)N2CCC[C@H]2C(=O)NC2(CCCC2)C(=O)N1C [Compound 548] ([NMeL]I[Sar][Sar][NMeCha][Sar][hPhe(3-Cl-4-CF3)]P[Ac5c][NMeNva][NMeD]-Piperidide; lactam N-11) | 1.6 | 100 to 500
C#CC[C@H]1C(=O)N[C@@H]([C@@H](C)CC)C(=O)N(C)CC(=O)N(C)CC(=O)N(C)[C@@H](CC2CCCCC2)C(=O)N(C)CC(=O)N[C@@H](CCc2ccc(C(F)(F)F)c(Cl)c2)C(=O)N2CCC[C@H]2C(=O)NC2(CCCC2)C(=O)N(C)[C@@H](C2CCCCC2)C(=O)N(C)[C@H](C(=O)N2CCCCC2)CC(=O)N1C [Compound 551] ([NMePra]I[Sar][Sar][NMeCha][Sar][hPhe(3-Cl-4-CF3)]P[Ac5c][NMeChg][NMeD]-Piperidide; lactam N-11) | 0.52 | 50 to 100
CC(C)C[C@H]1C(=O)N[C@@H](C2CCCCC2)C(=O)N(C)CC(=O)N(C)CC(=O)N(C)[C@@H](CC2CCCCC2)C(=O)N(C)CC(=O)N[C@@H](CCc2ccc(C(F)(F)F)c(Cl)c2)C(=O)N2CCC[C@H]2C(=O)NC2(CCCC2)C(=O)N(C)[C@@H](C2CCCCC2)C(=O)N(C)[C@H](C(=O)N2CCCCC2)CC(=O)N1C [Compound 552] ([NMeL][Chg][Sar][Sar][NMeCha][Sar][hPhe(3-Cl-4-CF3)]P[Ac5c][NMeChg][NMeD]-Piperidide; lactam N-11) | 0.63 | 100 to 500
CC[C@H](C)[C@@H]1NC(=O)[C@H](CC2CC2)N(C)C(=O)C[C@@H](C(=O)N2CCCCC2)N(C)C(=O)[C@H](C(C)C)N(C)C(=O)C2(CCCC2)NC(=O)[C@@H]2CCCN2C(=O)[C@H](CCc2ccc(C(F)(F)F)c(Cl)c2)NC(=O)CN(C)C(=O)[C@H](CC2CCCCC2)N(C)C(=O)CN(C)C(=O)CN(C)C1=O [Compound 561] ([NMeAla(cPr)]I[Sar][Sar][NMeCha][Sar][hPhe(3-Cl-4-CF3)]P[Ac5c][NMeV][NMeD]-Piperidide; lactam N-11) | 3.4 | 100 to 500
CC[C@H](C)[C@@H]1NC(=O)[C@H](C2CCC2)N(C)C(=O)C[C@@H](C(=O)N2CCCCC2)N(C)C(=O)[C@H](C2CCCCC2)N(C)C(=O)C2(CCCC2)NC(=O)[C@@H]2CCCN2C(=O)[C@H](CCc2ccc(C(F)(F)F)c(Cl)c2)NC(=O)CN(C)C(=O)[C@H](CC2CCCCC2)N(C)C(=O)CN(C)C(=O)CN(C)C1=O [Compound 562] ([NMeGly(cBu)]I[Sar][Sar][NMeCha][Sar][hPhe(3-Cl-4-CF3)]P[Ac5c][NMeChg][NMeD]-Piperidide; lactam N-11) | 0.56 | 50 to 100
CC[C@H](C)[C@@H]1NC(=O)[C@H](CC(C)C)N(C)C(=O)C[C@@H](C(=O)N(C)C)N(C)C(=O)[C@H](C2CCCC2)N(C)C(=O)C2(CCCC2)NC(=O)[C@H](C)NC(=O)[C@H](CCc2ccc(C(F)(F)F)c(Cl)c2)NC(=O)CN(C)C(=O)[C@H](CC2CCCCC2)N(C)C(=O)[C@@H]2CCN2C(=O)[C@H](C)N(C)C1=O [Compound 575] ([NMeL]I[NMeA][Aze][NMeCha][Sar][hPhe(3-Cl-4-CF3)]A[Ac5c][NMeGly(cPent)][NMeD]-NMe2; lactam N-11) | 0.56 | 100 to 500
CC[C@H](C)[C@@H]1NC(=O)[C@H](CC(C)C)N(C)C(=O)C[C@@H](C(=O)N2CCCCC2)N(C)C(=O)[C@H](CC(C)C)NC(=O)C(C)(C)N(C)C(=O)[C@H](Cc2ccccc2C)NC(=O)[C@H](Cc2cccc(I)c2)NC(=O)CN(C)C(=O)[C@H](Cc2ccc(C)cc2)N(C)C(=O)CN(C)C(=O)CN(C)C1=O [Compound 596] ([NMeL]I[Sar][Sar][NMePhe(4-Me)][Sar][Phe(3-I)][Phe(2-Me)][NMeAib]L[NMeD]-Piperidide; lactam N-11) | 34 | > 500
CC[C@H](C)[C@@H]1NC(=O)[C@H](CC(C)C)N(C)C(=O)C[C@@H](C(=O)N2CCCCC2)N(C)C(=O)[C@H](C(C)C)N(C)C(=O)C2(CCCCC2)NC(=O)[C@@H]2CCCN2C(=O)[C@H](CCc2ccc(C(F)(F)F)c(Cl)c2)NC(=O)CN(C)C(=O)[C@H](CC2CCCCC2)N(C)C(=O)CN(C)C(=O)CN(C)C1=O [Compound 600] ([NMeL]I[Sar][Sar][NMeCha][Sar][hPhe(3-Cl-4-CF3)]P[Ac6c][NMeV][NMeD]-Piperidide; lactam N-11) | 4.5 | 100 to 500
CC[C@H](C)[C@@H]1NC(=O)[C@H](CC(C)C)N(C)C(=O)C[C@@H](C)N(C)C(=O)[C@H](C(C)C)N(C)C(=O)C2(CCCC2)NC(=O)[C@@H]2CCCN2C(=O)[C@H](CCc2ccc(C(F)(F)F)c(Cl)c2)NC(=O)CN(C)C(=O)[C@H](CC2CCCCC2)N(C)C(=O)CN(C)C(=O)CN(C)C1=O [Compound 608] (cyclo([Ac5c][NMeV][NMedβ3hAla][NMeL]I[Sar][Sar][NMeCha][Sar][hPhe(3-Cl-4-CF3)]P)) | 5.9 | 50 to 100
CC[C@H](C)[C@@H]1NC(=O)[C@H](CC(C)C)N(C)C(=O)C[C@@H](C(=O)N(C)C)N(C)C(=O)[C@H]([C@@H](C)CC)N(C)C(=O)C2(CCCC2)NC(=O)[C@H](Cc2ccccc2F)N(C)C(=O)[C@H](CCc2ccc(C(F)(F)F)c(Cl)c2)NC(=O)CN(C)C(=O)[C@H](Cc2ccc(C)cc2)N(C)C(=O)[C@@H]2CCN2C(=O)[C@H](C)N(C)C1=O [Compound 616] ([NMeL]I[NMeA][Aze][NMePhe(4-Me)][Sar][hPhe(3-Cl-4-CF3)][NMePhe(2-F)][Ac5c][NMeI][NMeD]-NMe2; lactam N-11) | 3.9 | 50 to 100
CC[C@H](C)[C@@H]1NC(=O)[C@H](C)N(C)C(=O)C[C@@H](C(=O)N2CCCCC2)N(C)C(=O)[C@H](C2CCCCC2)N(C)C(=O)C2(CCCC2)NC(=O)[C@@H]2CCCN2C(=O)[C@H](CCc2ccc(F)cc2)NC(=O)CN(C)C(=O)[C@H](CC2CCCCC2)N(C)C(=O)CN(C)C(=O)CN(C)C1=O [Compound 618] ([NMeA]I[Sar][Sar][NMeCha][Sar][hPhe(4-F)]P[Ac5c][NMeChg][NMeD]-Piperidide; lactam N-11) | 2.4 | 100 to 500
CC[C@H](C)[C@@H]1NC(=O)[C@H](CC(C)C)N(C)C(=O)C[C@@H](C(=O)N2CCCCC2)N(C)C(=O)[C@H](C(C)C)N(C)C(=O)[C@](C)(CC)NC(=O)[C@@H]2CCCN2C(=O)[C@H](CCc2ccc(C(F)(F)F)c(Cl)c2)NC(=O)CN(C)C(=O)[C@H](CC2CCCCC2)N(C)C(=O)CN(C)C(=O)CN(C)C1=O [Compound 620] ([NMeL]I[Sar][Sar][NMeCha][Sar][hPhe(3-Cl-4-CF3)]P[Iva][NMeV][NMeD]-Piperidide; lactam N-11) | 11 | 100 to 500
CC[C@H](C)[C@@H]1NC(=O)[C@H](CC(C)C)N(C)C(=O)C[C@@H](C)N(C)C(=O)[C@H](C2CCCCC2)N(C)C(=O)C2(CCCC2)NC(=O)[C@@H]2CCCN2C(=O)[C@H](CCc2ccc(C(F)(F)F)c(Cl)c2)NC(=O)CN(C)C(=O)[C@H](CC2CCCCC2)N(C)C(=O)CN(C)C(=O)CN(C)C1=O [Compound 629] (cyclo([Ac5c][NMeChg][NMedβ3hAla][NMeL]I[Sar][Sar][NMeCha][Sar][hPhe(3-Cl-4-CF3)]P)) | 10 | 100 to 500
CC[C@H](C)[C@@H]1NC(=O)[C@H](CC(C)C)N(C)C(=O)C[C@@H](C(=O)N2CCCCC2)N(C)C(=O)[C@H](C2CCCCC2)N(C)C(=O)C2(CCCC2)NC(=O)[C@@H]2CCCN2C(=O)[C@H](CCc2ccc(C(F)(F)F)c(Cl)c2)NC(=O)CN(C)C(=O)[C@H](CCCCC(F)F)N(C)C(=O)CN(C)C(=O)CN(C)C1=O [Compound 631] ([NMeL]I[Sar][Sar][NMeNle(6-CHF2)][Sar][hPhe(3-Cl-4-CF3)]P[Ac5c][NMeChg][NMeD]-Piperidide; lactam N-11) | 1 | 100 to 500
C=CC[C@]1(C)NC(=O)[C@@H]2CCCN2C(=O)[C@H](CCc2ccc(C(F)(F)F)c(Cl)c2)NC(=O)CN(C)C(=O)[C@H](CC2CCCCC2)N(C)C(=O)CN(C)C(=O)CN(C)C(=O)[C@H]([C@@H](C)CC)NC(=O)[C@H](CC(C)C)N(C)C(=O)C[C@@H](C)N(C)C(=O)[C@H](C(C)C)N(C)C1=O [Compound 644] (cyclo(I[Sar][Sar][NMeCha][Sar][hPhe(3-Cl-4-CF3)]P[X2][NMeV][NMedβ3hAla][NMeL])) | 17 | 100 to 500
CC[C@H](C)[C@@H]1NC(=O)[C@H](CC(F)(F)F)N(C)C(=O)C[C@@H](C(=O)N2CCCC2)N(C)C(=O)[C@H](C2CCCCC2)N(C)C(=O)C2(CCCC2)NC(=O)[C@@H]2CCCN2C(=O)[C@H](CCc2ccc(C(F)(F)F)c(Cl)c2)NC(=O)CN(C)C(=O)[C@H](CC2CCCCC2)N(C)C(=O)CN(C)C(=O)CN(C)C1=O [Compound 647] ([NMeAbu(4,4,4-F3)]I[Sar][Sar][NMeCha][Sar][hPhe(3-Cl-4-CF3)]P[Ac5c][NMeChg][NMeD]-Pyrrolidide; lactam N-11) | 0.58 | 20 to 50
CC[C@H](C)[C@@H]1NC(=O)[C@H](CCOC)N(C)C(=O)C[C@@H](C(=O)N2CCCCC2)N(C)C(=O)[C@H](C2CCCCC2)N(C)C(=O)C2(CCCC2)NC(=O)[C@@H]2CCCN2C(=O)[C@H](CCc2ccc(C(F)(F)F)c(Cl)c2)NC(=O)CN(C)C(=O)[C@H](CC2CCCCC2)N(C)C(=O)CN(C)C(=O)CN(C)C1=O [Compound 650] ([NMehSer](Me)I[Sar][Sar][NMeCha][Sar][hPhe(3-Cl-4-CF3)]P[Ac5c][NMeChg][NMeD]-Piperidide; lactam N-11) | 0.6 | 50 to 100
